Test results: patent US11542240B2, “STK19 inhibitors for treatment of cancer” (TRUSTEES OF BOSTON UNIVERSITY, priority 2018, dated 2023)
Where two headings read alike, the source gives them in different places.

How the values were obtained:
STK19 L139F = STK19 L139F (Homo sapiens (Human), UniProt P49842, L139F); test: STK19 kinase assay, L139F mutant; conditions: L139F mutation
STK19 = STK19 (Homo sapiens (Human), UniProt P49842); test: in vitro kinase assay, HA-NRASQ61R phosphorylation by immunoblot; conditions: dose- and time-dependent; different doses 15 min or 3 μM different times
[1] = tested on: hTERT/p53DD/CDK4(R24C) melanocytes; test: cell proliferation assay of NRASQ61R-expressing immortal melanocytes; format: cell-based, human; conditions: 3 μM IV
[2] = tested on: SK-MEL-2 xenograft melanoma (with NRASQ61R); test: SK-MEL-2 xenograft in nude mice; format: in vivo, mouse
Description: FIGS. 6B-6D. Growth curve, tumor weight, and dissected tumors for the xenograft experiments with indicated cells inoculated subcutaneously into flanks of nude mice treated with IV. Visible tumors were measured every three days. […] (FIGS. 6E-6G) Growth curve, tumor weight, and dissected tumors for the xenograft experiments with SK-MEL-2 cells inoculated subcutaneously into flanks of nude mice treated with IV. Visible tumors were measured every three days. […] (FIGS. 6H-6I) Effects of IV treatment on in vivo proliferation and apoptosis were evaluated by staining of the sections of tumor collected in G for Ki67 and cleaved caspase-3. The sections were counterstained with DAPI. Data are means±SD (n=7). Representative images were shown. Scale bar, 100 μm.

[3] = biological target: panel of 468 diverse kinases (Homo sapiens, UniProt P50750); test: biochemical; format: binding; conditions: CDK9; 1000 nM; read-out: Percent Control
[4] = biological target: panel of 468 diverse kinases (Homo sapiens, UniProt P42336, E545K); test: biochemical; format: binding; conditions: PIK3CA(E545K); 1000 nM; read-out: Percent Control
[5] = biological target: panel of 468 diverse kinases (Homo sapiens, UniProt P53350); test: biochemical; format: binding; conditions: PLK1; 1000 nM; read-out: Percent Control
[6] = biological target: panel of 468 diverse kinases (Homo sapiens, UniProt Q14289); test: biochemical; format: binding; conditions: PYK2; 1000 nM; read-out: Percent Control
[7] = biological target: panel of 468 diverse kinases (Homo sapiens, UniProt O15530); test: biochemical; format: binding; conditions: PDPK1; 1000 nM; read-out: Percent Control
[8] = biological target: panel of 468 diverse kinases (Homo sapiens, UniProt P29597); test: biochemical; format: binding; conditions: 1000 nM, read-out: Percent Control
[9] = biological target: panel of 468 diverse kinases (Homo sapiens, UniProt O14920); test: biochemical; format: binding; conditions: IKK-beta; 1000 nM; read-out: Percent Control
[10] = biological target: panel of 468 diverse kinases (Plasmodium falciparum, UniProt P61075); test: biochemical; format: binding; conditions: read-out: Percent Control
[11] = biological target: panel of 468 diverse kinases (Homo sapiens, UniProt Q9Y2U5); test: biochemical; format: binding; conditions: MAP3K2; 1000 nM; read-out: Percent Control
[12] = biological target: panel of 468 diverse kinases (Homo sapiens, UniProt P00533, L858R/T790M); test: biochemical; format: binding; conditions: EGFR(L858R, T790M); 1000 nM; read-out: Percent Control
[13] = biological target: panel of 468 diverse kinases (Homo sapiens, UniProt O15146); test: biochemical; format: binding; conditions: MUSK; 1000 nM; read-out: Percent Control
[14] = biological target: panel of 468 diverse kinases (Homo sapiens, UniProt Q5VT25); test: biochemical; format: binding; conditions: MRCKA; 1000 nM; read-out: Percent Control
[15] = biological target: panel of 468 diverse kinases (Homo sapiens, UniProt Q13882); test: biochemical; format: binding; conditions: BRK; 1000 nM; read-out: Percent Control
[16] = biological target: panel of 468 diverse kinases (Homo sapiens, UniProt P41240); test: biochemical; format: binding; conditions: CSK; 1000 nM; read-out: Percent Control
[17] = biological target: panel of 468 diverse kinases (Homo sapiens, UniProt Q96GD4); test: biochemical; format: binding; conditions: AURKB; 1000 nM; read-out: Percent Control
[18] = biological target: panel of 468 diverse kinases (Homo sapiens, UniProt Q8TF76); test: biochemical; format: binding; conditions: HASPIN; 1000 nM; read-out: Percent Control
[19] = biological target: panel of 468 diverse kinases (Homo sapiens, UniProt Q16539); test: biochemical; format: binding; conditions: p38-alpha; 1000 nM; read-out: Percent Control
[20] = biological target: panel of 468 diverse kinases (Homo sapiens, UniProt Q13177); test: biochemical; format: binding; conditions: PAK2; 1000 nM; read-out: Percent Control
[21] = biological target: panel of 468 diverse kinases (Homo sapiens, UniProt Q9HBH9); test: biochemical; format: binding; conditions: MKNK2; 1000 nM; read-out: Percent Control
[22] = biological target: panel of 468 diverse kinases (Homo sapiens, UniProt Q02763); test: biochemical; format: binding; conditions: TIE2; 1000 nM; read-out: Percent Control
[23] = biological target: panel of 468 diverse kinases (Homo sapiens, UniProt Q8WU08); test: biochemical; format: binding; conditions: YANK1; 1000 nM; read-out: Percent Control
[24] = biological target: panel of 468 diverse kinases (Homo sapiens, UniProt Q15375); test: biochemical; format: binding; conditions: EPHA7; 1000 nM; read-out: Percent Control
[25] = biological target: panel of 468 diverse kinases (Homo sapiens, UniProt Q9Y2H1); test: biochemical; format: binding; conditions: NDR2; 1000 nM; read-out: Percent Control
Sequence of panel of 468 diverse kinases (Homo sapiens, UniProt Q9Y2H1) (Q9Y2H1 2-464 limits assumed): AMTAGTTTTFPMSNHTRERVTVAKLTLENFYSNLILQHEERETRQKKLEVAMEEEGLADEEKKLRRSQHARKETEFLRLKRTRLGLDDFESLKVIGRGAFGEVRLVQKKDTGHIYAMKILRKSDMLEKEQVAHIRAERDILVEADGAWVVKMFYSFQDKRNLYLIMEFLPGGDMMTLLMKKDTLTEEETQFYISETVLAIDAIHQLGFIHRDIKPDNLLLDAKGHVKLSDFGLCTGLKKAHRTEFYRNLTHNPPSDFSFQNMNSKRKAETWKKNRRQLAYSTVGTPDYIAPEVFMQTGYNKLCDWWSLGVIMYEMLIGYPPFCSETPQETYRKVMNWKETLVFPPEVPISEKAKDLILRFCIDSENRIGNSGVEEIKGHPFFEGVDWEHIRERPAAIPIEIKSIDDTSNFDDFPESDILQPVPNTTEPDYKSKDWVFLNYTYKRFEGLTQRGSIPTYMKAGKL

Sequence of panel of 468 diverse kinases (Homo sapiens, UniProt Q02763) (Q02763 23-1124 limits assumed): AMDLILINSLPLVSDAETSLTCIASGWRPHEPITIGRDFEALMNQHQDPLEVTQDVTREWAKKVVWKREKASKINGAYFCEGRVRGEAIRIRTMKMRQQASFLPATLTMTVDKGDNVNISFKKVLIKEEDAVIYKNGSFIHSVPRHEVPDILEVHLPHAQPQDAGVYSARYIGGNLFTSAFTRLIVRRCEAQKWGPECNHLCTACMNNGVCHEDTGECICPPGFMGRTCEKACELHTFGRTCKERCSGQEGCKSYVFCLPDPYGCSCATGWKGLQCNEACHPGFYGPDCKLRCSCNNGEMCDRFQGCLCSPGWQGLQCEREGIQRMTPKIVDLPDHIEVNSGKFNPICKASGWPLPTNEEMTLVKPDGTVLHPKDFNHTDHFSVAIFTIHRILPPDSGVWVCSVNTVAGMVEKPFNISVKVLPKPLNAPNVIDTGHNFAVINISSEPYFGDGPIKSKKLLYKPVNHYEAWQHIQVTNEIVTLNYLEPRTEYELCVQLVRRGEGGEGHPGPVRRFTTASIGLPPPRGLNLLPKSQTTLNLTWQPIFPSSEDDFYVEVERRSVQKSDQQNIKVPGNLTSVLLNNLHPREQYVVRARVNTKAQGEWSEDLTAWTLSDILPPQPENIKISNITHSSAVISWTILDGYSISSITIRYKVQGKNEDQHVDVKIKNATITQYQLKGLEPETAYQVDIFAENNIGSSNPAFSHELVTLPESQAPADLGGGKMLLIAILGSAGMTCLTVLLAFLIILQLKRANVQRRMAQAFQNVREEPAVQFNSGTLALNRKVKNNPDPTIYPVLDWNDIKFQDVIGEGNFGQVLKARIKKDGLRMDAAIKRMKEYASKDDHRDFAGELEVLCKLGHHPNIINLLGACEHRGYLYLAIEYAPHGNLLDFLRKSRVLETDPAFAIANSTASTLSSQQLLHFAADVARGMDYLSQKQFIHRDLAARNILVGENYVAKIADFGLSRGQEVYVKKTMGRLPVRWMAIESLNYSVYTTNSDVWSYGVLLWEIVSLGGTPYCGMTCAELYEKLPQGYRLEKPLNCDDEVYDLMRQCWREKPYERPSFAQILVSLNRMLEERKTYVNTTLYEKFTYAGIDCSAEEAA
Sequence of STK19 L139F (P49842 other isoform, or with tags, fused parts or gaps L139F): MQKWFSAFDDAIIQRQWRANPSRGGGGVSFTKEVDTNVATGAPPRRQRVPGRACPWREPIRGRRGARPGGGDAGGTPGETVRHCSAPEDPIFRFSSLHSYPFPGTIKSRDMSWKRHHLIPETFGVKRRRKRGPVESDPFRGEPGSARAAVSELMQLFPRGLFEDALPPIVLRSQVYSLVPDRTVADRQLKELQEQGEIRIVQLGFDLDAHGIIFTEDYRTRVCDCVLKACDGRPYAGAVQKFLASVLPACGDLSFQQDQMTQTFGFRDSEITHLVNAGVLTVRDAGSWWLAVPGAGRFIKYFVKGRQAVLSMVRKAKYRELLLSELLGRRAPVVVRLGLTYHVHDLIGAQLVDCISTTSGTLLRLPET
Sequence of STK19 (P49842 other isoform, or with tags, fused parts or gaps): as the sequence (P49842 other isoform, or with tags, fused parts or gaps L139F) above, with F139L counted along it
Sequence of panel of 468 diverse kinases (Homo sapiens, UniProt O15146) (O15146 24-869 limits assumed): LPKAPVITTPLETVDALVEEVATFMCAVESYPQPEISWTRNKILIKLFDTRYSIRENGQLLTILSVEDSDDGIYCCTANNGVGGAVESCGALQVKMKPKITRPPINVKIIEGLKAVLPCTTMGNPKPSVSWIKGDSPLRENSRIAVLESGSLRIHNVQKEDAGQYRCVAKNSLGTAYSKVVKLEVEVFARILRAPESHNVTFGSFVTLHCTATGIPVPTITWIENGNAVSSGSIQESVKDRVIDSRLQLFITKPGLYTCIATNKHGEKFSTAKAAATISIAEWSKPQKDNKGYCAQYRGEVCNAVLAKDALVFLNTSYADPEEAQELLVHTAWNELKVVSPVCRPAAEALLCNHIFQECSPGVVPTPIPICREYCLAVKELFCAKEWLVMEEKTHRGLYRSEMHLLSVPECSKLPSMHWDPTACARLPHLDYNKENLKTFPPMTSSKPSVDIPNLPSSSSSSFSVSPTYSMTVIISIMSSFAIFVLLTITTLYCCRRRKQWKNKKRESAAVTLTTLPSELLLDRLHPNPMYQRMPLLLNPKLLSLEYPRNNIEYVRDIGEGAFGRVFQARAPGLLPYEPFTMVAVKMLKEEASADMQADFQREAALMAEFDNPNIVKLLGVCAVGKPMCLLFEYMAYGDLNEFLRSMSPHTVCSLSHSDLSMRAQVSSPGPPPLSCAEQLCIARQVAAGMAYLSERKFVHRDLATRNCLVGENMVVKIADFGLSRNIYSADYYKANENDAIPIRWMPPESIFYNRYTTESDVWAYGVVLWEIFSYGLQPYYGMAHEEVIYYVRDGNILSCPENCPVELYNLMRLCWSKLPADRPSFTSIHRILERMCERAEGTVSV
Sequence of panel of 468 diverse kinases (Homo sapiens, UniProt Q15375) (Q15375 28-998 limits assumed): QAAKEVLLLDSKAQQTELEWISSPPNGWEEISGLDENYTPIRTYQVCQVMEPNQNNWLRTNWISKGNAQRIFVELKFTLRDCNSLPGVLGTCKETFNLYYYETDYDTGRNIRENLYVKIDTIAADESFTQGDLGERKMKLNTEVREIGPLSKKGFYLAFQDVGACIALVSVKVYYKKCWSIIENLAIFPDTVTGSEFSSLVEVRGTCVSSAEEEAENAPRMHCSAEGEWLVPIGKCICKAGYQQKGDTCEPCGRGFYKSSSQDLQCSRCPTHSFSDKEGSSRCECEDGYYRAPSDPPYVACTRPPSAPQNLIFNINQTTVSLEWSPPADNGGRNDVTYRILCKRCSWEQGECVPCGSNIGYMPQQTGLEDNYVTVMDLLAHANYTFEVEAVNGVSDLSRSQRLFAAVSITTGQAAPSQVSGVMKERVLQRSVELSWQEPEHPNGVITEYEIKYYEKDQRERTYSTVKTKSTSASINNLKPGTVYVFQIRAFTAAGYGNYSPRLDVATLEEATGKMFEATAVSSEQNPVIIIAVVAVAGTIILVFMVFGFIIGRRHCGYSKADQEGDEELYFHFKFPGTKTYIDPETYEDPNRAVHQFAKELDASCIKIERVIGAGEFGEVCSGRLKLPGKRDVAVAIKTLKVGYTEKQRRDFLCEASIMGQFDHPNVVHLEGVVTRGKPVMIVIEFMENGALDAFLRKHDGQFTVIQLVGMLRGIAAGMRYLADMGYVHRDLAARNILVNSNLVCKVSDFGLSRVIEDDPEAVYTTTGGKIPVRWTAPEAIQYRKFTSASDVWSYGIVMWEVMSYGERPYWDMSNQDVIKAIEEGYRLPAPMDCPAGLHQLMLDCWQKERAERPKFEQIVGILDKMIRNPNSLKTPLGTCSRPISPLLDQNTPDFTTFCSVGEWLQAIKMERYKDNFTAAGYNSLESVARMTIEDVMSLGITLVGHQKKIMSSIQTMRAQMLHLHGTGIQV
Sequence of panel of 468 diverse kinases (Homo sapiens, UniProt Q13177) (Q13177 2-524 limits assumed): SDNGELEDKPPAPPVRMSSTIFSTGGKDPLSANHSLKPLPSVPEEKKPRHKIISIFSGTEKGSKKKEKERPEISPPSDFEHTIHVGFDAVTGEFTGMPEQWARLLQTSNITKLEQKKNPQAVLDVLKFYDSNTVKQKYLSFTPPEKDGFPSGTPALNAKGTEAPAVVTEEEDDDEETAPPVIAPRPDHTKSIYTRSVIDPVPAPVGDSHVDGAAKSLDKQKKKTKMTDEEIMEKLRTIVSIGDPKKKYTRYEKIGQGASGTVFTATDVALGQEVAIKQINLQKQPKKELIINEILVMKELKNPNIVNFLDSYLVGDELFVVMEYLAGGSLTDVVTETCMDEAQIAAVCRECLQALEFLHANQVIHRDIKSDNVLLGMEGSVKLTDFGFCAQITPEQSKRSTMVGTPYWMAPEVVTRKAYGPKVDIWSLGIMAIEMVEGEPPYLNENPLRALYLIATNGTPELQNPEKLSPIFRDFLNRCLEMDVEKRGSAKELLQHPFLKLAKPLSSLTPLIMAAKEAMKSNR
Sequence of panel of 468 diverse kinases (Homo sapiens, UniProt Q16539) (Q16539 2-360 limits assumed): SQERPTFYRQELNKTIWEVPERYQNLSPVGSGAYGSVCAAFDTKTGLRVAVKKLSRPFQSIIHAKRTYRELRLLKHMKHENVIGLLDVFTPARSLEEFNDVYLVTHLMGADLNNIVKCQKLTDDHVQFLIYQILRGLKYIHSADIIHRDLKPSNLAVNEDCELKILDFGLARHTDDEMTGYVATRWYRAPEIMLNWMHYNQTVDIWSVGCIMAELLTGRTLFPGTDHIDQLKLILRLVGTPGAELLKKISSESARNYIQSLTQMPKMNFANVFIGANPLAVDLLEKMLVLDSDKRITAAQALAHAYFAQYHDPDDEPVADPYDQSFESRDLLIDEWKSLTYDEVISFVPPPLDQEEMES

COc1cc2nc(NC3CC3)nc(NC3CCN(C(C)C)CC3)c2cc1OC [Formula IV]
inhibitory potential of IV for STK19 L139F (STK19 L139F): remarkably compromised
phosphorylation of NRAS (STK19): efficiently inhibited
mutant NRAS/STK19-driven melanocyte proliferation [1]: significantly inhibited
survival of SK-MEL-2 xenograft tumor-bearing mice ([2]; 25 and 50 mg/kg IV vs controls): significantly prolonged
growth of SK-MEL-2 xenograft melanoma ([2]; dose-dependent): inhibited growth
NRAS activity in SK-MEL-2 xenograft tumors ([2]; immunoblot, different doses): inhibited NRAS activity
levels of H3K9 methylation in SK-MEL-2 xenograft tumors ([2]; immunoblot, marker of G9a activity): did not affect
apoptosis of SK-MEL-2 tumors (cleaved caspase-3 staining) ([2]; mouse, in vivo): induced apoptosis
in vivo cell proliferation of SK-MEL-2 tumors (Ki67 staining) ([2]; mouse, in vivo): effectively inhibited
remaining activity at 1 µM [3]: 100%
remaining activity at 1 µM [4]: 48%
remaining activity at 1 µM [5]: 70%
remaining activity at 1 µM [6]: 93%
remaining activity at 1 µM [7]: 97%
remaining activity at 1 µM ([8]; TYK2(JH1domain-catalytic)): 37%
remaining activity at 1 µM ([8]; TYK2(JH2domain-pseudokinase)): 79%
remaining activity at 1 µM [9]: 66%
remaining activity at 1 µM [10]: 48%
remaining activity at 1 µM [11]: 65%
remaining activity at 1 µM [12]: 35%
remaining activity at 1 µM [13]: 83%
remaining activity at 1 µM [14]: 100%
remaining activity at 1 µM [15]: 100%
remaining activity at 1 µM [16]: 98%
remaining activity at 1 µM [17]: 84%
remaining activity at 1 µM [18]: 71%
remaining activity at 1 µM [19]: 100%
remaining activity at 1 µM [20]: 63%
remaining activity at 1 µM [21]: 82%
remaining activity at 1 µM [22]: 100%
remaining activity at 1 µM [23]: 95%
remaining activity at 1 µM [24]: 93%
remaining activity at 1 µM [25]: 100%
